# Measurements: paper PMC12884772, “Macrophagic Sclerostin Loop2‐ApoER2 Interaction Required by Sclerostin for Cardiovascular Protective Action” (Advanced Science, 2025)
# Experiments:
# [1] = tested on: sclerostin loop2‐ApoER2 interaction; experiment: ApoER2‐Pep blockade of sclerostin effects in ApoER2 overexpressing, LPS‐induced RAW 264.7 macrophages; assay type: cell-based, mouse
# Description: In ApoER2‐Pep‐mediated structure‐function studies in vitro, RAW 264.7 cells were divided into 4 groups (n = 3 per group), including (1) Control, (2) LPS, (3) Lrp8 + LPS + SOST, and (4) Lrp8 + LPS + SOST + ApoER2‐Pep. Cells in groups (3) and (4) were transfected with Lrp8 plasmids encoding ApoER2, while cells in groups (1) and (2) were kept untreated. 24 h later, cells in group (3) were treated with recombinant sclerostin (SOST, 1 µM), while cells in group (4) were treated with recombinant sclerostin (1 µM) and ApoER2‐Pep (2 µM) for 3 h. Then, cells in groups (2), (3), and (4) were treated with LPS (1 µg/mL) for 18 h. All groups of cells were collected for determining the mRNA expression levels of TNF‐α, MCP‐1, and IL‐10 by RT‐PCR. Cell mediums were collected for determining the protein expression/secretion levels of mouse TNF‐α, mouse MCP‐1, and mouse IL‐10 by ELISA.
# Total RNA was extracted from cells following the protocols of Trizol reagent (Invitrogen, 15 596 026). Reverse‐transcription was performed to obtain cDNA using HiScript III RT SuperMix kit (Vazyme, R323), and RT‐PCR was accomplished using a HiScript III RT SuperMix kit (Vazyme, R323) in a QuantStudio 7 PRO System (Applied Biosystems). The relative gene expression levels were calculated using the 2^−ΔΔCt method with GAPDH as the reference gene.^[ [40] ^] The primers were as follows: mouse GAPDH (F: […], R: GGGGTCGTTGATGGCAAC), mouse NF‐κB (p65, F: […], R: […]), mouse TNF‐α (F: […], R: […]), mouse MCP‐1 (F: […], R: […]), mouse IL‐10 (F: […], R: […]), human GAPDH (F: […], R: […]), human TNF‐α (F: […], R: […]), human MCP‐1 (F: […], R: […]) and human IL‐10 (F: […], R: […]).
# [2] = tested on: sclerostin loop2‐ApoER2 interaction; experiment: BLI blockade of ApoER2 - sclerostin loop2 binding by pretreatment with ApoER2‐Pep; details: His‐ApoER2 on HIS1K biosensors, sclerostin loop2 pretreated with ApoER2‐Pep, Figure 6F, listed as ApoER2‐LA7
# Description: Biolayer interferometry (BLI) analysis was performed on the Biomolecular Interaction Analyzer (ForteBio, Octet RED96e). To determine the binding affinity between ApoER2 and sclerostin, the ApoER2 protein (R&D, 3520‐AR) was biotinylated using 10 mM EZ‐Link Sulfo‐NHS‐LC‐LC‐Biotin (Thermo Scientific, 21 343) in a molar ratio of 1:20 for 2 h at 4 °C. The Slide‐A‐Lyzer Dialysis Cassettes (Thermo Scientific, 66 382) were used for excess biotin removal.^[ [61] ^] […] (SA) tray biosensors (Sartorius, 18‐5019) were used to load biotin‐ApoER2 proteins. Biosensors were pre‐wet for 10 min using 200 µL PBS containing 0.02% Tween 20 (v/v) in a 96‐well plate. To determine the binding affinity between sclerostin loop2 and ApoER2‐LA7, anti‐penta‐HIS (HIS1K) biosensors (Sartorius, 18‐5102) were used to load His‐sclerostin loop2, the sclerostin loop2‐loaded biosensors were immersed in the ApoER2‐LA7 with different concentrations. […] Raw data were analyzed using Data Analysis Software (ForteBio, v8.1). All Kd values were calculated after deducting the non‐specific binding between the biosensors and the samples.^[ [62], [63] ^]
# Target sequence in this assay (Q99P68 107-132 limits assumed): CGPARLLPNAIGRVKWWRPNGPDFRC
# SOST^ki.ApoE^−/− mice = experiment: Aortic aneurysm, atherosclerosis and inflammatory responses in SOST^ki.ApoE^−/− mice with AngII infusion; assay type: in vivo, mouse; details: 10 mg/kg/day subcutaneous, four weeks, versus veh and Rseq‐Pep groups, n = 12
# Description: (§1) Aortic aneurysm (AA), atherosclerosis, and inflammatory responses were induced in ApoE^−/− mice with AngII infusion as previously described.^[ [15] ^] In brief, osmotic minipumps (Model 1004, ALZET, Durect Corporation) were implanted into the subcutaneous space along the dorsal midline under anaesthesia on the right flank via an incision in the scapular region to deliver 1000 ng/kg/min of AngII (A9525, Sigma‐Aldrich) or vehicle in 3‐month‐old mice for four weeks.^[ [68] ^]
# For AA evaluation, the aortas were perfused via the left ventricle with ice‐cold EDTA buffer (1 mM) and saline immediately after sacrifice. The aortas were then isolated from the fat and connective tissues under a Zeiss Stemi 305 stereomicroscope and then fixed in 4% PFA. The aorta with or without aneurysm formation was defined according to Daugherty's modified classification.^[ [45] ^] The incidence of AA was determined as follows: mouse number with aortic aneurysm/group mice*100%. The maximum ex vivo diameters of the aortic arch and suprarenal aorta were determined by ImageJ software. For atherosclerosis assessment, atherosclerotic plaque was quantified by measuring the surface area of the Oil Red O‐positive lesions on en face preparation of aortic arches.^[ [14] ^] Briefly, aortic arches were cut longitudinally and immersed in Oil Red O dye solution, followed by being rinsed with 75% ethanol. The ratio of atherosclerotic plaque area to total aortic arch area was quantified by colorimetric analysis using Image J software.^[ [13] ^]
# (§2) The serum levels of sclerostin were detected using the sclerostin ELISA kits (R&D, DSST00; Cloud‐Clone, SEC864Mu) in triplicate following the manufacturer's instructions.^[ [14] ^] The serum levels of pro‐inflammatory cytokine and chemokine were measured using TNF‐α ELISA kit (Thermo Fisher BMS607‐3) and MCP‐1 ELISA kit (Thermo Fisher, BMS6005) in triplicate following manufacturer's instructions.^[ [15], [45] ^] The serum levels of anti‐inflammatory cytokine were measured using IL‐10 ELISA kit (Jonlnbio JL20242‐96T) in triplicate following manufacturer's instructions.^[ [15], [45] ^]
# [3] = tested on: sclerostin‐knockout macrophages (RAW264.7); experiment: Effect of ApoER2‐LA7 on LPS‐induced cytokine mRNA in sclerostin‐knockout macrophages (RAW264.7); assay type: cell-based, mouse; details: sclerostin‐knockout RAW264.7, after LPS induction, n = 3; Figure S7C
# sost^−/−.ApoE^−/− mice = experiment: Inflammatory responses in sost^−/−.ApoE^−/− mice with AngII infusion (absence of sclerostin); assay type: in vivo, mouse; details: 10 mg/kg, n = 6, Figure S12F
# Description: as §1, §2
# Figure S12. […] (A) Serum stability of the modified ApoER2-Pep. […] All tests were two-sided. n = 6 per group. Data were expressed as mean ± standard deviation.
# [4] = LPS‐induced macrophages in vitro
sequence,measurement,setting,value
PCRENEFQCGDGTCVLAIKRCNQERDCPDGSDEAGCL [ApoER2‐Pep],"Effects of exogenous sclerostin on protein expression/secretion of TNF‐α, MCP‐1 and IL‐10 after pretreatment with the peptide","[1]; ApoER2‐Pep 2 µM + sclerostin 1 µM for 3 h, LPS 1 µg/mL 18 h, ELISA, n = 3",significantly attenuated
same,"Effects of exogenous sclerostin on mRNA expression of TNF‐α, MCP‐1 and IL‐10 after pretreatment with the peptide","[1]; ApoER2‐Pep 2 µM + sclerostin 1 µM for 3 h, LPS 1 µg/mL 18 h, RT‐PCR, n = 3",significantly attenuated
same,Reversal of the promotive effect of sclerostin on IL‐10 mRNA expression,[1]; [4],complete reversal
same,Reversal of the suppressive effect of sclerostin on MCP‐1 mRNA expression,[1]; [4],complete reversal
same,Reversal of the suppressive effect of sclerostin on TNF‐α mRNA expression,[1]; [4],partial reversal
same,Binding of ApoER2 to sclerostin loop2 after pretreatment with the peptide,[2],blocked
same,Serum level of IL‐10,SOST^ki.ApoE^−/− mice; ELISA,significantly lower
same,Serum level of MCP‐1,SOST^ki.ApoE^−/− mice; ELISA,significantly higher
same,Serum level of TNF‐α,SOST^ki.ApoE^−/− mice; ELISA,significantly higher
same,AA incidence,SOST^ki.ApoE^−/− mice,significantly higher
same,Maximum ex vivo diameters of aortic arches and suprarenal aortas,SOST^ki.ApoE^−/− mice,significantly higher
same,Ratio of atherosclerotic plaque in aortic arches,SOST^ki.ApoE^−/− mice,significantly higher
same,"mRNA expression levels of TNF‐α, MCP‐1 and IL‐10, with versus without the peptide",[3],no significant differences
same,"Effect on inflammatory responses (serum TNF‐α, MCP‐1, IL‐10) in the absence of sclerostin",sost^−/−.ApoE^−/− mice,no effect
